Results on 31 molecules are retold here after PubChem BioAssay AID743232 (The Scripps Research Institute Molecular Screening Center, 2013).

Calls of active or inactive are those of the source. No rule for the calls is given here. Some results are limits rather than exact numbers.

As a reminder, the EC50 is the midpoint of the concentration-response curve.

In the test the test system is Ga16-expressing cells (no TAAR1), calcium fluorescence, counterscreen. Put plainly: Ga16 cell calcium activation, concentration series – fluorescence, dose response, counter-screen for TAAR1 agonist project, late-stage follow-up (AID 743232). (The purpose of a counterscreen is to sort out artefacts and off-target activity.)
On to `OCCNc1nc(Nc2cccc(O)c2)nc2ccccc12`, for which the EC50 was > 29.9 µM (inactive).

Take `COc1cc(C(=O)CCN2CCC(c3ccccc3)C2)cc(OC)c1OC` (stereo unspecified): the EC50 was > 29.9 µM (inactive).

Turning to `Cc1cc(N(C)C)nc(Nc2ccccc2)n1`, the EC50 was > 29.9 µM (inactive).

Take `O=C(CCCCl)N1CCc2[nH]c3ccccc3c2C1`: the EC50 was > 29.9 µM (inactive).

With `CCOC(=O)C(NC(=O)CC)(N1CCc2ccccc2C1)C(F)(F)F` (stereo unspecified), the EC50 is > 29.9 µM (inactive).

`NC(N)=Nc1cc2ccccc2c2ccccc12`: the EC50 was > 29.9 µM (inactive).

As to `OCCNc1nc(Nc2ccc(O)cc2)nc2ccccc12`, the EC50 was > 29.9 µM (inactive).

For `c1ccc(CCn2nnnc2C(c2cccs2)N2CCN(Cc3ccc4c(c3)OCO4)CC2)cc1` (stereo unspecified), the EC50 is > 29.9 µM (inactive).

As for `Nc1nc(Nc2ccccc2)nc2ccccc12`, the EC50 is > 29.9 µM (inactive).

Consider `Cc1[nH]c2ccccc2c1CN1CCc2ccccc2C1`, for which the EC50 was > 29.9 µM (inactive).

Turning to `CC(=C1C(=O)c2ccccc2C1=O)N1CCc2ccccc2C1`, the EC50 is > 29.9 µM (inactive).

Take `O=c1[nH]cc(NCCc2ccccc2)c(=O)[nH]1`: the EC50 was > 29.9 µM (inactive).

Regarding `O=C(CCN1CCC(c2ccccc2)C1)c1cccs1` (stereo unspecified), the EC50 was > 29.9 µM (inactive).

On to `CC(=NCCc1ccccc1)C1CCOC1=O` (stereo unspecified), for which the EC50 is > 29.9 µM (inactive).

Take `O=C(Nc1ccncc1)Nc1ccc(F)cc1`: the EC50 was > 29.9 µM (inactive).

For the molecule `O=C(C(=O)N1CCc2ccccc2C1)c1cn(CC(=O)N2CCCCC2)c2ccccc12`, the EC50 was > 29.9 µM (inactive).

With `O=C(Nc1ccccc1)Nc1ccncc1`, the EC50 is > 29.9 µM (inactive).

Turning to `c1ccc2c3c([nH]c2c1)CCNC3`, the EC50 was > 29.9 µM (inactive).

With `O=C(Nc1cccnc1)Nc1cccc(F)c1`, the EC50 is > 29.9 µM (inactive).

For the molecule `c1ccc2c(c1)CCN(c1nc3cc4c(cc3s1)OCO4)C2`, the EC50 was > 29.9 µM (inactive).

`Nc1nc(Nc2cccc(F)c2)nc2ccccc12`: the EC50 was > 29.9 µM (inactive).

Turning to `CCOC(=O)C(NC(C)=O)(N1CCc2ccccc2C1)C(F)(F)F` (stereo unspecified), the EC50 was > 29.9 µM (inactive).

For `Cc1ccc(NC(=O)CCN2CCc3ccccc3C2)cc1`, the EC50 is > 29.9 µM (inactive).

On to `c1ccc(CCN2CN(CCCN3CCOCC3)c3nc4ccccc4n3C2)cc1`, for which the EC50 is > 29.9 µM (inactive).

`O=C(CCN1CCC(c2ccccc2)C1)c1ccc2c(c1)OCCO2` (stereo unspecified): the EC50 was > 29.9 µM (inactive).

Regarding `O=C(CCN1CCc2ccccc2CC1)c1ccc2c(c1)OCCO2`, the EC50 is > 29.9 µM (inactive).

Take `Cc1cc(C)n(C(CC(=O)N2CCc3ccccc3C2)C(=O)O)n1` (stereo unspecified): the EC50 was > 29.9 µM (inactive).

Turning to `O=C(Nc1cccc2ccccc12)N1CCc2ccccc2C1`, the EC50 was > 29.9 µM (inactive).

On to `NCc1c(O)ccc2ccccc12`, for which the EC50 was > 29.9 µM (inactive).

With `CC1(C)CCCN(C(=O)c2coc(=O)c(Br)c2)C1`, the EC50 was > 29.9 µM (inactive).

Turning to `NC(N)=NN=Cc1c(Cl)cccc1Cl`, the EC50 was > 29.9 µM (inactive).
